For the data set, the system named is GENE-TOX genotoxicity assays, various organisms and cells. Put plainly: GENE-TOX mutagenicity studies. The settings on record: for call: Assay Type: In vivo carcinogenicity studies.
Setting [1] is: Species/Cell Type: Drosophila melanogaster, Assay Type: Sex-linked recessive lethal gene mutation, Assay Code: SRLT, Evaluation Type: Evaluation A (Pre-1980).
Where [2] appears, read: Species/Cell Type: Saccharomyces cerevisiae, Assay Type: Mitotic recombination or gene conversion, Assay Code: YEC+, Evaluation Type: Evaluation A (Pre-1980).
Setting [3] is: Species/Cell Type: Salmonella typhimurium (one or more of the five standard strains: TA98, TA100, TA1535, TA1537, and TA1538), Assay Type: Histidine reverse gene mutation, Ames assay, Assay Code: SAL+, Evaluation Type: Evaluation A (Pre-1980).
Where [4] appears, read: Species/Cell Type: Mouse, Sex: Male, Assay Type: Sperm morphology, Assay Code: SPI-, Evaluation Type: Evaluation A (Pre-1980).

We go through eleven molecules from PubChem BioAssay AID1259408 (Genetic Toxicology Data Bank (GENE-TOX), 2018).

Activity calls are given as the source filed them. No rule for the calls is given here.

As to `O=c1cnn([C@@H]2O[C@H](CO)[C@@H](O)[C@H]2O)c(=O)[nH]1`, the mutagenic call was “no conclusion” under setting [1] and “active; positive” (Species/Cell Type: Rabbit, Sex: Male, Assay Type: Sperm morphology, Assay Code: SPR+, Evaluation Type: Evaluation A (Pre-1980)).

For the molecule `NC(=O)c1ncn([C@@H]2O[C@H](CO)[C@@H](O)[C@H]2O)c1O`, the mutagenic call (Species/Cell Type: Nonhuman, Assay Type: Sister-chromatid exchange (SCE) in vitro, Assay Code: SC2+D, Dose Response: With dose response, Evaluation Type: Evaluation A (Pre-1980)) was “active; positive”.

Turning to `NC(=S=O)c1ccccc1`, the mutagenic call (Species/Cell Type: Mammalian polychromatic erythrocytes, Assay Type: Micronucleus test, chromosome aberrations, Assay Code: MNT+U, Dose Response: Unconfirmed positive response, Evaluation Type: Evaluation B (Post-1980)) is “active; positive”.

For `ClCCl`, the mutagenic call is, setting by setting: (Species/Cell Type: Drosophila melanogaster, Assay Type: Sex-linked recessive lethal gene mutation, Assay Code: SRL-, Evaluation Type: Evaluation A (Pre-1980)) “inactive; negative”; (Species/Cell Type: Fischer rat embryo (RLV/1706) cells, Assay Type: Cell transformation, viral enhanced, Assay Code: CTR+, Evaluation Type: Evaluation A (Pre-1980)) “active; positive”; (Species/Cell Type: Mammalian polychromatic erythrocytes, Assay Type: Micronucleus test, chromosome aberrations, Assay Code: MNT-, Evaluation Type: Evaluation B (Post-1980)) “inactive; negative”; (Species/Cell Type: Nonhuman, Assay Type: Sister-chromatid exchange (SCE) in vitro, Assay Code: SC2+D, Dose Response: With dose response, Evaluation Type: Evaluation B (Post-1980)) “active; positive”; under setting [2], “active; positive”; (Species/Cell Type: Saccharomyces cerevisiae, Assay Type: Mitotic recombination or gene conversion, Assay Code: YEH+, Evaluation Type: Evaluation A (Pre-1980)) “active; positive”. Moreover, the mutagenic call (Species/Cell Type: Saccharomyces cerevisiae, Assay Type: Reverse gene mutation, Assay Code: YER+, Evaluation Type: Evaluation A (Pre-1980)) is “active; positive” and the mutagenic call under setting [3] was “active; positive”.

Regarding `[N-]=[N+]=[N-]`, the mutagenic call is “no conclusion” (Species/Cell Type: Arabidopsis species, Assay Type: Gene mutation, Assay Code: ARMT, Evaluation Type: Evaluation A (Pre-1980)); “active; positive” (Species/Cell Type: Drosophila melanogaster, Assay Type: Sex-linked recessive lethal gene mutation, Assay Code: SRL+, Evaluation Type: Evaluation A (Pre-1980)); “no conclusion” (Species/Cell Type: Escherichia coli WP2, Assay Type: Tryptophan reverse gene mutation, Assay Code: WP2T, Evaluation Type: Evaluation A (Pre-1980)); “inactive; negative” (Species/Cell Type: Escherichia coli WP2 UVRA, Assay Type: Tryptophan reverse gene mutation, Assay Code: WPU-, Evaluation Type: Evaluation A (Pre-1980)); “active; positive” (Species/Cell Type: Glycine max (soybean), Assay Type: Gene mutation, Assay Code: GLM+, Evaluation Type: Evaluation A (Pre-1980)); “active; positive” (Species/Cell Type: Hordeum vulgare (barley), Assay Type: Gene mutation, Assay Code: HOM+, Evaluation Type: Evaluation A (Pre-1980)). The mutagenic call is “inactive; negative” (Species/Cell Type: Human diploid fibroblasts, Assay Type: Unscheduled DNA synthesis (UDS) in vitro, DNA effects, Assay Code: UDH-, Evaluation Type: Evaluation A (Pre-1980)); “inactive; negative” (Species/Cell Type: Human lymphocytes or leukocytes, Assay Type: Chromosome aberrations in vitro, Assay Code: CY7-, Evaluation Type: Evaluation A (Pre-1980)); “active; positive” (Species/Cell Type: Human lymphocytes, Assay Type: Sister-chromatid exchange (SCE) in vitro, Assay Code: SCL+, Evaluation Type: Evaluation B (Post-1980)); “active; positive” (Species/Cell Type: Human, Assay Type: Sister-chromatid exchange (SCE) in vitro, Assay Code: SC1+, Evaluation Type: Evaluation B (Post-1980)); “active; positive” (Species/Cell Type: Mouse lymphoma (L5178Y) cells, Assay Type: Forward gene mutation at the thymidine kinase (TK) locus, chromosome aberrations, Assay Code: L51+, Evaluation Type: Evaluation A (Pre-1980)); “inactive; negative” under setting [4]. The mutagenic call by setting is: (Species/Cell Type: Saccharomyces cerevisiae, Assay Type: Forward gene mutation, Assay Code: YEF+, Evaluation Type: Evaluation A (Pre-1980)) “active; positive”; under setting [2], “active; positive”; (Species/Cell Type: Saccharomyces cerevisiae, Assay Type: Reverse gene mutation, Assay Code: YER+*, Activation: With metabolic activation, Evaluation Type: Evaluation A (Pre-1980)) “active; positive”; under setting [3], “active; positive”; (Species/Cell Type: Tradescantia species, Assay Type: Chromosome aberrations, Assay Code: TRC+D, Dose Response: With dose response, Evaluation Type: Evaluation A (Pre-1980)) “active; positive”; (Species/Cell Type: Tradescantia species, Assay Type: Gene mutation, Assay Code: TRM+D, Dose Response: With dose response, Evaluation Type: Evaluation A (Pre-1980)) “active; positive”. The mutagenic call (Species/Cell Type: Zea mays (corn), Assay Type: Gene mutation, Assay Code: ZEM+D, Dose Response: With dose response, Evaluation Type: Evaluation A (Pre-1980)) is “active; positive”. Under “Species/Cell Type: Nonhuman, Assay Code: CCGT, Evaluation Type: Evaluation A (Pre-1980)”, the call is “no conclusion”.

For the molecule `O=[N+]([O-])c1ccc(-c2nc(N3CCOCC3)c3ccccc3n2)s1`, the mutagenic call under setting [3] is “active; positive”.

Turning to `O=[N+]([O-])c1ccnc2ccccc12`, the mutagenic call (Species/Cell Type: Escherichia coli polA (W3119 vs P3478), Assay Type: Rec-assay, DNA effects (bacterial DNA repair), Assay Code: RE1-, Evaluation Type: Evaluation A (Pre-1980)) was “inactive; negative”.

On to `N#Cc1ccc(N)cc1`, for which the mutagenic call under setting [4] is “inactive; negative”.

Consider `CCN(Cc1cccc(S(=O)(=O)[O-])c1)c1ccc(C(=C2C=CC(=[N+](C)C)C=C2)c2ccc(N(CC)Cc3cccc(S(=O)(=O)O)c3)cc2)cc1`, for which the mutagenic call reads like this: (Species/Cell Type: Bacillus subtilis (H17 vs M45), Assay Type: Rec-assay, spot test, DNA effects (bacterial DNA repair), Assay Code: REWT, Evaluation Type: Evaluation A (Pre-1980)) “no conclusion”; (Species/Cell Type: Bacillus subtilis (H17 vs M45T), Assay Type: Rec-assay, spot test, DNA effects (bacterial DNA repair), Assay Code: REXT, Evaluation Type: Evaluation A (Pre-1980)) “no conclusion”; (Species/Cell Type: Salmonella typhimurium (one or more of the five standard strains: TA98, TA100, TA1535, TA1537, and TA1538), Assay Type: Histidine reverse gene mutation, Ames assay, Assay Code: SAL-, Evaluation Type: Evaluation A (Pre-1980)) “inactive; negative”. The call (Species/Cell Type: Nonhuman, Assay Code: CCG+, Evaluation Type: Evaluation A (Pre-1980)) was “active; positive”.

Take `Cn1c([N+](=O)[O-])cnc1-c1nc2ccccc2n1CCCN1CCOCC1`: the mutagenic call under setting [1] is on record as “no conclusion” and the mutagenic call (Species/Cell Type: Saccharomyces cerevisiae, Assay Type: Mitotic recombination or gene conversion, Assay Code: YEC-, Evaluation Type: Evaluation A (Pre-1980)) is “inactive; negative”.

For `O=[N+]([O-])c1ccc(N2CCN(CCO)CC2)c2c1no[n+]2[O-]`, the mutagenic call under setting [3] was “active; positive”.
